# The source made the active and inactive calls. No cut-off for these calls is given here.
# Experiments:
# [1] = test system: Staphylococcus epidermidis; assay: Bactericidal activity against methicillin-resistant Staphylococcus epidermidis isolate 409/10 after 24 hrs; type: functional; settings: isolate 409/10, 24 h, read-out: MBC99.9
# [2] = test system: Pseudomonas aeruginosa; assay: Bactericidal activity against Pseudomonas aeruginosa NCTC 6749 after 24 hrs; type: functional; settings: NCTC 6749, 24 h, read-out: MBC99.9
# [3] = test system: Staphylococcus epidermidis; assay: Antimicrobial activity against methicillin-resistant Staphylococcus epidermidis isolate 461/11 after 18 hrs by twofold serial broth dilution method; type: functional; settings: isolate 461/11, 18 h
# [4] = test system: Staphylococcus epidermidis; assay: Bactericidal activity against methicillin-resistant Staphylococcus epidermidis isolate 405/10 after 24 hrs; type: functional; settings: isolate 405/10, 24 h, read-out: MBC99.9
# [5] = test system: Escherichia coli; assay: Antimicrobial activity against Escherichia coli ATCC 10538 after 18 hrs by twofold serial broth dilution method; type: functional; settings: ATCC 10538, 18 h
# [6] = test system: Staphylococcus epidermidis; assay: Antimicrobial activity against methicillin-resistant Staphylococcus epidermidis isolate 459/11 after 18 hrs by twofold serial broth dilution method; type: functional; settings: isolate 459/11, 18 h
# [7] = test system: Staphylococcus epidermidis; assay: Bactericidal activity against methicillin-resistant Staphylococcus epidermidis isolate 407/10 after 24 hrs; type: functional; settings: isolate 407/10, 24 h, read-out: MBC99.9
# [8] = test system: Staphylococcus epidermidis; assay: Bactericidal activity against methicillin-resistant Staphylococcus epidermidis isolate 455/11 after 24 hrs; type: functional; settings: isolate 455/11, 24 h, read-out: MBC99.9
# [9] = test system: Staphylococcus epidermidis; assay: Bactericidal activity against methicillin-resistant Staphylococcus epidermidis isolate 459/11 after 24 hrs; type: functional; settings: isolate 459/11, 24 h, read-out: MBC99.9
# [10] = test system: Staphylococcus epidermidis; assay: Bactericidal activity against methicillin-resistant Staphylococcus epidermidis isolate 424/10 after 24 hrs; type: functional; settings: isolate 424/10, 24 h, read-out: MBC99.9
# [11] = test system: Staphylococcus epidermidis; assay: Antimicrobial activity against methicillin-resistant Staphylococcus epidermidis isolate 405/10 after 18 hrs by twofold serial broth dilution method; type: functional; settings: isolate 405/10, 18 h
# [12] = test system: Staphylococcus aureus; assay: Bactericidal activity against Staphylococcus aureus ATCC 6538 after 24 hrs; type: functional; settings: ATCC 6538, 24 h, read-out: MBC99.9
# [13] = test system: Staphylococcus epidermidis; assay: Antimicrobial activity against methicillin-resistant Staphylococcus epidermidis isolate 460/11 after 18 hrs by twofold serial broth dilution method; type: functional; settings: isolate 460/11, 18 h
# [14] = test system: Staphylococcus epidermidis; assay: Antimicrobial activity against methicillin-resistant Staphylococcus epidermidis isolate 403/10 after 18 hrs by twofold serial broth dilution method; type: functional; settings: isolate 403/10, 18 h
# [15] = test system: Staphylococcus epidermidis; assay: Bactericidal activity against Staphylococcus epidermidis ATCC 12228 after 24 hrs; type: functional; settings: ATCC 12228, 24 h, read-out: MBC99.9
# [16] = test system: Staphylococcus epidermidis; assay: Ratio of ciprofloxacin MIC to compound MIC for methicillin-resistant Staphylococcus epidermidis clinical isolate after 18 hrs by twofold serial broth dilution method; type: functional
# [17] = test system: Staphylococcus epidermidis; assay: Inhibition of Staphylococcus epidermidis isolate 409/10 biofilm formation at 1 to 32 ug/ml after 24 hrs by MTT assay; type: functional, organism-based
# [18] = test system: Staphylococcus epidermidis; assay: Inhibition of Staphylococcus epidermidis ATCC 35984 biofilm formation at 1 to 32 ug/ml after 24 hrs by MTT assay; type: functional, organism-based
# [19] = test system: Staphylococcus epidermidis; assay: Inhibition of Staphylococcus epidermidis isolate 461/11 biofilm formation at 1 to 32 ug/ml after 24 hrs by MTT assay; type: functional, organism-based
# [20] = test system: Staphylococcus epidermidis; assay: Inhibition of Staphylococcus epidermidis ATCC 12228 biofilm formation at 1 to 32 ug/ml after 24 hrs by MTT assay; type: functional, organism-based
# [21] = test system: Staphylococcus epidermidis; assay: Inhibition of Staphylococcus epidermidis isolate 469/11 biofilm formation at 1 to 32 ug/ml after 24 hrs by MTT assay; type: functional, organism-based
# [22] = test system: Staphylococcus epidermidis; assay: Inhibition of Staphylococcus epidermidis isolate 407/10 biofilm formation at 1 to 32 ug/ml after 24 hrs by MTT assay; type: functional, organism-based
SMILES,MBC [1],MBC [2],MIC [3],MBC [4],MIC [5],MIC [6],MBC [7],MBC [8],MBC [9],MBC [10],MIC [11],MBC [12],MIC [13],MIC [14],MBC [15],further results
CC[C@@H](C(=O)[C@@H](C)[C@@H](O)[C@H](C)[C@@H]1O[C@@H]([C@@H](CC)C(=O)N(Cc2ccccc2)Cc2ccccc2)CC[C@@H]1C)[C@H]1O[C@]2(C=C[C@@H](O)[C@]3(CC[C@@](C)([C@H]4CC[C@](O)(CC)[C@H](C)O4)O3)O2)[C@H](C)C[C@@H]1C,256 µg/mL,> 256 µg/mL,32 µg/mL,128 µg/mL,> 256 µg/mL,16 µg/mL,256 µg/mL,256 µg/mL,256 µg/mL,256 µg/mL,8 µg/mL,256 µg/mL,32 µg/mL,16 µg/mL,256 µg/mL,–
CC[C@@H](C(=O)[C@@H](C)[C@@H](O)[C@H](C)[C@@H]1O[C@@H]([C@@H](CC)C(=O)N2CCNCC2)CC[C@@H]1C)[C@H]1O[C@]2(C=C[C@@H](O)[C@]3(CC[C@@](C)([C@H]4CC[C@](O)(CC)[C@H](C)O4)O3)O2)[C@H](C)C[C@@H]1C,> 256 µg/mL,> 256 µg/mL,256 µg/mL,> 256 µg/mL,> 256 µg/mL,64 µg/mL,> 256 µg/mL,> 256 µg/mL,> 256 µg/mL,> 256 µg/mL,64 µg/mL,> 256 µg/mL,128 µg/mL,128 µg/mL,> 256 µg/mL,–
CC[C@@H](C(=O)[C@@H](C)[C@@H](O)[C@H](C)[C@@H]1O[C@@H]([C@@H](CC)C(=O)N(CC)CC)CC[C@@H]1C)[C@H]1O[C@]2(C=C[C@@H](O)[C@]3(CC[C@@](C)([C@H]4CC[C@](O)(CC)[C@H](C)O4)O3)O2)[C@H](C)C[C@@H]1C,256 µg/mL,> 256 µg/mL,4 µg/mL,256 µg/mL,> 256 µg/mL,4 µg/mL,128 µg/mL,256 µg/mL,256 µg/mL,256 µg/mL,8 µg/mL,64 µg/mL,8 µg/mL,4 µg/mL,64 µg/mL,Ratio [16]: 40
CC[C@@H](C(=O)[C@@H](C)[C@@H](O)[C@H](C)[C@@H]1O[C@@H]([C@@H](CC)C(=O)N2CCOCC2)CC[C@@H]1C)[C@H]1O[C@]2(C=C[C@@H](O)[C@]3(CC[C@@](C)([C@H]4CC[C@](O)(CC)[C@H](C)O4)O3)O2)[C@H](C)C[C@@H]1C,> 256 µg/mL,> 256 µg/mL,> 256 µg/mL,> 256 µg/mL,256 µg/mL,128 µg/mL,> 256 µg/mL,> 256 µg/mL,> 256 µg/mL,> 256 µg/mL,256 µg/mL,> 256 µg/mL,256 µg/mL,256 µg/mL,> 256 µg/mL,–
O=C(O)c1cn(C2CC2)c2cc(N3CCNCC3)c(F)cc2c1=O [CIPROFLOXACIN],64 µg/mL,0.125 µg/mL,0.25 µg/mL,128 µg/mL,–,32 µg/mL,> 256 µg/mL,> 256 µg/mL,> 256 µg/mL,256 µg/mL,2 µg/mL,–,0.125 µg/mL,8 µg/mL,1 µg/mL,inhibition [17]: Active; inhibition [18]: Active; inhibition [19]: Active; inhibition [20]: Active; inhibition [21]: Active; inhibition [22]: Active
